Data taken from patent US20250057823A1, “COMPOSITION FOR IMPROVING CARDIAC FUNCTION” (Kyoto University, priority 2021, published 2025).
Where a name gives a salt, the structure may show the parent alone.

Test system: mouse models of pressure overload-induced cardiac hypertrophy/heart failure (TAC)
Assay: Mouse models of TAC heart failure during cardiac hypertrophic phase
Format: in vivo
Experimental: Transverse aortic constriction (TAC) was performed as described previously [Date, et al. (2002) The antioxidant N-2-mercaptopropionyl glycine attenuates left ventricular hypertrophy in in vivo murine pressure-overload model. J Am Coll Cardiol 39: 907-912.]. Briefly, 8- to 10-week-old mice were anesthetized with anesthetic (0.3 mg/kg of medetomidine, 4.0 mg/kg of midazolam, and 5.0 mg/kg of butorphanol) administered intraperitoneally, and the proximal portion of the sternum was cut open to visualize the aorta. A 7-0 silk suture was placed around the aortic arch distal to the brachiocephalic artery. The suture was tightened firmly around a blunt 26-gauge needle placed adjacent to the aorta. The needle was then removed, and the chest and overlying skin were closed. Sham-operated mice underwent an identical surgical procedure without ligation of the aortic arch. At the end of the operation, 0.3 mg/kg of atipamezole was administered subcutaneously to reverse medetomidine. FIG. 1 is a schematic diagram of TAC.
Total RNA was reverse transcribed by blend primer of random hexamers and oligo-dT 3:1 (volume/volume) using Verso™ cDNA Synthesis Kit (Thermo Fisher Scientific, AB1453A) in accordance with the manufacturer's protocol, and the cDNA was analyzed by qRT-PCR. qRT-PCR measurements used THUNDERBIRD SYBR qPCR Mix (TOYOBO) in accordance with the manufacturer's instructions. Expression levels of messenger RNAs (mRNAs) were normalized by the indicated housekeeping genes, and calculated by the 2^−ΔΔCt method. All analyses were performed using a StepOnePlus real-time PCR system and StepOne Software v2.3 (Applied Biosystems, Inc).
Wheat Germ Agglutinin (WGA) Staining and the Quantification Paraffin-embedded ventricular short-axis sections were stained with FITC-conjugated lectin (Sigma, L4895). Images were captured by Axio Observer7 (Zeiss). Cardiomyocyte cross-sectional area measurement was performed using ImageJ64 software (NIH). Approximately 150-200 cells were measured per heart, and averages were used for the analysis.
To analyze the cardiac function, we used Vevo® 2100 (VISUALSONICS) at the indicated time points after TAC operation. Mice were kept under inhalation anesthesia with 2.5% isoflurane. LV function was measured in M mode of the parasternal short-axis view.
Mouse models of pressure overload-induced cardiac hypertrophy/heart failure were prepared by TAC and were injected intraperitoneally with 50 mg/kg of KUS121 daily for 2 weeks starting immediately after TAC. Sham-operated mice and control mice were injected with 5% glucose. Two weeks after TAC, echocardiography was performed, then the mice were sacrificed, the body weight and heart weight were measured, and heart samples were collected.

[1] = TAC mice, 50 mg/kg i.p. daily for 2 weeks starting immediately after TAC
[2] = echocardiography two weeks after TAC, 50 mg/kg i.p. daily
[3] = heart tissue, qRT-PCR, 50 mg/kg i.p. daily for 2 weeks after TAC

Cc1cc(F)ccc1-c1ccc(/N=N/c2cc(S(=O)(=O)O)c3ccccc3c2N)cn1 [KUS121, 4-amino-3-[6-(4-fluoro-2-methylphenyl)pyridine-3-ylazo]naphthalene-1-sulfonic acid sodium salt]
cardiomyocyte cross-sectional area (WGA staining) [1]: suppressed the increase
heart weight [1]: suppressed the increases
ratio of heart weight to body weight [1]: suppressed the increases
interventricular septum diameter at end-diastole (IVSd) [2]: suppressed both
left ventricular ejection fraction (LVEF) [2]: did not significantly suppress the decrease
left ventricular mass [2]: suppressed both
mRNA levels of cardiac hypertrophy markers (BNP and ANF) [3]: suppressed the increases
mRNA levels of endoplasmic reticulum stress markers (Bip, CHOP, and VCP) [3]: not significantly affected
